Test results: ChEMBL document CHEMBL3507680, “University of Dundee, Gates Library screen for HepG2 cell viability”

Assay: Human HepG2 cell viability assay in 384 well format
Assay type: toxicity, cell-based
Set-up: dose 125 nL, time 70.5 hour; cytotoxicity at 70.5 h: concentration not given beside the values
Details: HepG2 cells, read-out: Inhibition

SMILES: CCNC(=O)[C@@H]1C[C@@H](NC(=O)c2ccc(C)s2)CN1Cc1ccccn1
- cytotoxicity at 70.5 h: -2.7%

SMILES: Cc1ncsc1CCn1ccnc1-c1cc2n(n1)CCCNC2
- cytotoxicity at 70.5 h: 5.55%

SMILES: CN(C)c1ncnc2c1CCN(S(=O)(=O)c1cccc3nsnc13)C2
- cytotoxicity at 70.5 h: -5.63%

SMILES: COc1cccc(Cl)c1C(C(=O)O)N1CCC(O)(c2cccnc2)CC1 (stereo not given)
- cytotoxicity at 70.5 h: -3.34%

SMILES: COc1c(F)cc(-c2cccc3c2OC(CN)C3)cc1F (stereo not given)
- cytotoxicity at 70.5 h: 0.0982%

SMILES: CC(c1cn2ncsc2n1)N1Cc2ncccc2C1=O (stereo not given)
- cytotoxicity at 70.5 h: -10.3%

SMILES: Cc1nc[nH]c1CN1C[C@@H]2CC[C@H](C1)N(C(=O)c1cnn(C)c1)C2
- cytotoxicity at 70.5 h: 7.73%

SMILES: CCOCCn1nc(C)cc1C(=O)N1CCCC[C@H](N(C)C)C1
- cytotoxicity at 70.5 h: -4.33%

SMILES: CC(C)n1ccnc1C1CCN(C(=O)c2ccccn2)CC1
- cytotoxicity at 70.5 h: -6.85%

SMILES: Cc1cccc(C(C(=O)NCC2(Cn3nc(C)cc3C)CC2)N(C)C)c1 (stereo not given)
- cytotoxicity at 70.5 h: -2.42%

SMILES: CCOC(=O)CC1(Nc2nc(C)nc3c2cnn3C)CCCCC1
- cytotoxicity at 70.5 h: -18%

SMILES: CCCOc1c(CNC2CCSC2)cccc1OC (stereo not given)
- cytotoxicity at 70.5 h: -11.2%

SMILES: Cc1cc(C2CCCN2C(=O)CN2CC3(CCNCC3)OC2=O)on1 (stereo not given)
- cytotoxicity at 70.5 h: -5.06%

SMILES: COc1ccc2[nH]cc(C(=O)N3CC[C@H](CO)[C@@H](O)C3)c(=O)c2c1
- cytotoxicity at 70.5 h: -6.72%

SMILES: Fc1cccnc1Oc1cc(F)c(CN2CCCC2)c(F)c1
- cytotoxicity at 70.5 h: -13.4%

SMILES: CC(C)n1cnnc1CN(C)Cc1ccoc1
- cytotoxicity at 70.5 h: -2.84%

SMILES: O=C1CC(C(=O)N2CCc3sccc3C2)CN1Cc1cccnc1 (stereo not given)
- cytotoxicity at 70.5 h: 2.13%

SMILES: CC(C)[C@H](Nc1cc(-c2ccncc2)nc2ccnn12)C(N)=O
- cytotoxicity at 70.5 h: 6.65%

SMILES: O=C(c1ccc(F)cc1F)N1C[C@H]2CC[C@@H]1CN(Cc1ccccc1)C2
- cytotoxicity at 70.5 h: -2.62%

SMILES: Cc1nc(CN2CCCC(CCc3ccc(F)c(F)c3)C2)c[nH]1 (stereo not given)
- cytotoxicity at 70.5 h: 19.5%

SMILES: CCn1cc(CN2CCCC2c2nc(C(C)C)no2)cc1C#N (stereo not given)
- cytotoxicity at 70.5 h: 21%

SMILES: COCc1noc(-c2ccc(N(C)Cc3cn(C)nc3C)nc2)n1
- cytotoxicity at 70.5 h: -5.15%

SMILES: Cc1ccc(C2(CN(C)Cc3c(C)nn(C)c3C)CCNCC2)nc1
- cytotoxicity at 70.5 h: 19.9%

SMILES: CCn1ncnc1C(C)Nc1cc(C)c2ccc(SC)cc2n1 (stereo not given)
- cytotoxicity at 70.5 h: -11.1%

SMILES: O=C(c1ccncc1)N1C[C@@H]2CC[C@H](C1)N(C(=O)C1CCCC1)C2
- cytotoxicity at 70.5 h: 2.1%

SMILES: CN1CCC(N(C)C[C@H]2CC[C@@H](Cc3ccc4c(cnn4C)c3)O2)CC1
- cytotoxicity at 70.5 h: -7.57%

SMILES: CCO[C@H]1C[C@@H](O)C12CCN(C1CCN(c3ccccc3)CC1)CC2
- cytotoxicity at 70.5 h: -5.15%

SMILES: O=C1CCc2cc(S(=O)(=O)NCc3cc4n(n3)CCNC4)ccc2N1
- cytotoxicity at 70.5 h: -16.4%

SMILES: CC(C)c1nccc(C2CC(=O)Nc3n[nH]c(C4CCC4)c32)n1 (stereo not given)
- cytotoxicity at 70.5 h: 2.19%

SMILES: COc1cccc(N2CCN(Cc3ccc4[nH]ccc4c3)CC2=O)c1
- cytotoxicity at 70.5 h: -12.1%

SMILES: CCOC(=O)N1CCCC2(CCN(Cc3ccccc3C#N)C2)C1 (stereo not given)
- cytotoxicity at 70.5 h: -6.46%

SMILES: CSCCC(=O)N1CCCC(c2nccn2Cc2ccncc2)C1 (stereo not given)
- cytotoxicity at 70.5 h: -5.49%

SMILES: COc1cc2[nH]c(=O)c(CN3CCC[C@H]3CO)cc2c(OC)c1OC
- cytotoxicity at 70.5 h: 14%

SMILES: CC(C)c1cc(C(=O)N2C[C@H]3CC[C@@H]2CN(Cc2cccnc2)C3)no1
- cytotoxicity at 70.5 h: -12.5%

SMILES: Cc1cc(NC2CCN(Cc3ccccn3)CC2)n2nc(C)c(C)c2n1
- cytotoxicity at 70.5 h: 0.979%

SMILES: C(=C\c1ccc(CN2CCCC2)cn1)/c1ccccc1
- cytotoxicity at 70.5 h: 6.88%

SMILES: O=C(NCCC1CN(Cc2cccnc2)CCO1)c1ccsc1 (stereo not given)
- cytotoxicity at 70.5 h: 6.62%

SMILES: CC(CCc1ncnn1Cc1cccc(Cl)c1)N1CCCC1 (stereo not given)
- cytotoxicity at 70.5 h: -9.23%

SMILES: Cc1cc(=O)[nH]c(SC(C)C(=O)N2CCC(c3ncc[nH]3)CC2)n1 (stereo not given)
- cytotoxicity at 70.5 h: 0.989%

SMILES: Cc1cc(-n2nc(C)nc2-c2cn(CCN)nn2)ccn1
- cytotoxicity at 70.5 h: -6.15%

SMILES: Cc1nc(NC2(CN3CCCCC3)CCCCC2)c2cnn(C)c2n1
- cytotoxicity at 70.5 h: -18.3%

SMILES: CCc1nc(C)c(CNC(=O)CCCN2CCCCC2)s1
- cytotoxicity at 70.5 h: -1.08%

SMILES: CC(NC(=O)c1cc(=O)n(C)c(=O)n1C)c1ccccc1-n1cccn1 (stereo not given)
- cytotoxicity at 70.5 h: 4.9%

SMILES: CSCC(=O)N[C@H]1CC[C@H](Nc2nccc(-c3ccncc3)n2)C1
- cytotoxicity at 70.5 h: -0.057%

SMILES: CCc1nn(C)c(Cl)c1CN1CCN(c2ccc(C(N)=O)cn2)CC1
- cytotoxicity at 70.5 h: -8.09%

SMILES: CNC(=O)CC1COCCN1C(=O)C1(c2ccc(Cl)cc2)CCC1 (stereo not given)
- cytotoxicity at 70.5 h: 7.35%

SMILES: CCSc1ncc(CN2CCN(c3ccc(C#N)cc3)C(=O)C2)cn1
- cytotoxicity at 70.5 h: -8.4%

SMILES: O=C(c1ccc2occc2c1)N1CCC(C(=O)O)(n2cccn2)CC1
- cytotoxicity at 70.5 h: -4.27%

SMILES: CN(C)CCn1ccnc1C1CCCN(c2cc(N)ncn2)C1 (stereo not given)
- cytotoxicity at 70.5 h: 23.6%

SMILES: Cn1c(CCC(=O)N2CCC3(CCCO3)CC2)nc2cccnc21
- cytotoxicity at 70.5 h: -9.63%

SMILES: c1ccc(COCCN2CCc3[nH]cnc3C2c2ccco2)cc1 (stereo not given)
- cytotoxicity at 70.5 h: -4.41%

SMILES: Cc1ccc([C@@H]2CN(C(=O)c3ccoc3C)C[C@H]2NC(=O)C2CC2)cc1
- cytotoxicity at 70.5 h: 30.5%

SMILES: Cc1ccc(CN2CC[C@@H](NC(=O)c3cccnc3)[C@H](O)C2)s1
- cytotoxicity at 70.5 h: -10.7%

SMILES: Cc1cccc(-c2ncc(CNC(C)CO)cn2)c1 (stereo not given)
- cytotoxicity at 70.5 h: 27.8%

SMILES: CCn1c(C2CCNCC2)nn(Cc2ccc(C(=O)NC)o2)c1=O
- cytotoxicity at 70.5 h: -12.2%
